Measurements published in patent US12433877B2, “Sustained release drug delivery systems and related methods” (Durect Corporation, priority 2021, dated 2025).
Counter-ions that a name gives are not always drawn.

Experiments:
clinical = details: human, in vivo; for half-life: t1/2 (min, max)
Experimental: Additionally, alpha 1 acid glycoprotein (AAG) plasma concentrations were measured in these two groups for correlation with free bupivacaine concentrations.
Using non-compartmental methods the following PK parameters were calculated from the plasma concentrations of each compound: area under the plasma concentration vs. time curve until the last measured concentration (AUCt), area under the plasma concentration vs. time curve extrapolated until infinity (AUCinf), the maximum concentration (Cmax), the time of its occurrence (tmax) and the apparent terminal elimination half-life (t1/2). […] The average […] of bupivacaine was approximately 5.2%; free bupivacaine plasma concentrations generally paralleled those of total bupivacaine. There was a large interindividual variability of Cmax of both total and free bupivacaine. […] Note: Table 1.5 presents Geometric mean, ±68th percentile for Cmax rather than absolute min,max.

pregnant rats = details: rat, in vivo
Experimental: Bupivacaine hydrochloride was administered subcutaneously to rats at doses of 4.4, 13.3, & 40 mg/kg and to rabbits at doses of 1.3, 5.8, & 22.2 mg/kg during the period of organogenesis (implantation to closure of the hard palate). The high doses are approximately 0.6 times the daily maximum recommended human dose (MRHD) of 660 mg/day on a mg/m^2 body surface area (BSA) basis.

[1] = tested on: patients undergoing a variety of general surgical procedures; experiment: Example 18: general surgical procedures (laparotomy, laparoscopic cholecystectomy, colectomy), pain and opioid use; format: in vivo, human; details: ITT; for Repeated Measures Pain Intensity on Movement 0-72 Hours, LS Mean: All Timepoints 0-72 hr, LogPad scores only
[2] = tested on: subjects undergoing elective outpatient laparoscopic cholecystectomy; experiment: Example 17: laparoscopic cholecystectomy study, safety (surgical site and CNS-related adverse reactions, TEAEs); format: in vivo; details: for Fatal TEAE: Part 2
Experimental: In two studies in patients undergoing laparoscopic cholecystectomy, Formulation A or bupivacaine HCl was administered into the laparoscopic port incisions at the end of surgery. In one of these studies, a subset of patients received either Formulation A or saline placebo. In a study of patients undergoing laparoscopically-assisted colectomy, Formulation A or vehicle placebo was administered predominantly into the hand port incision at the end of surgery. In a study of patients undergoing laparotomy, Formulation A or bupivacaine HCl was administered into the full length of the surgical incision at the end of surgery. Table 4.7 and Table 4.8 present, respectively, surgical-site adverse reactions and early-occurring central nervous system (CNS)-related adverse reactions from the laparoscopic cholecystectomy study that included a saline placebo control arm.
The trial included: 1) a randomized, parallel-group, double-blind, placebo-controlled study (Part 1) and a randomized, parallel-group, double-blind, bupivacaine HCl active-controlled study (Part 2). The trial evaluated the efficacy and safety of Formulation A (bupivacaine, benzyl alcohol, sucrose acetate isobutyrate) as a delivery system in subjects undergoing elective outpatient laparoscopic cholecystectomy.
The study was conducted as 2 separate parts (Part 1 and Part 2).
The fascia was closed, as required, prior to instillation of Formulation A. Formulation A was instilled into the incisions via a blunt-tipped syringe-tip applicator just prior to skin closure. After administration, the skin was closed in standard fashion with subcuticular sutures and cyanoacrylate skin adhesive or Steri-Strips™.
In Part 1, subjects randomized to saline-placebo were administered sterile normal saline 5 mL (0.9% sodium chloride injection, USP) by direct instillation into the surgical incisions. The 5 mL of placebo was divided between the 4 ports according to a protocol-specified dosing schedule, to provide coverage of all surgical incisions. The fascia was closed, as required, prior to instillation of the placebo composition. The placebo composition was instilled into the incisions via a blunt-tipped syringe-tip applicator just prior to skin closure. After administration, the skin was closed in standard fashion with subcuticular sutures and cyanoacrylate skin adhesive or Steri-Strips™.
In Part 2, subjects randomized to active control were administered bupivacaine HCl 0.5% 15 mL (75 mg; without epinephrine) by infiltration into the margins of the surgical incisions with a 22 gauge needle. The 15 mL of bupivacaine HCl composition was divided between the 4 ports according to a protocol-specified dosing schedule, to provide coverage of all surgical incisions. The fascia was closed, as required, prior to administration of the bupivacaine HCl active control composition. After infiltration, the skin was closed in standard fashion with subcuticular sutures and cyanoacrylate skin adhesive or Steri-Strips™
There were no fatalities in this trial. […]

[3] = tested on: patients undergoing total abdominal hysterectomy; experiment: Adverse reactions, total abdominal hysterectomy study; format: in vivo, human; details: Formulation A N = 60; Bupivacaine HCl N = 27
Experimental: In a study of patients undergoing total abdominal hysterectomy, Formulation A, vehicle placebo, or bupivacaine HCl was administered into the surgical incision at the end of surgery.

## CCCCN1CCCCC1C(=O)Nc1c(C)cccc1C (stereo not shown) [Bupivacaine HCl]
clinical
  AUC(0-inf): 30 to 2210 ng·h/mL
  AUC(0-t): 249 to 1900 ng·h/mL
  AUCinf (min, max), free bupivacaine: (0.7, 134) h · ng/mL
  AUCinf, free bupivacaine: 48 ng·h/mL
  AUCt (min, max), free bupivacaine: (0.010, 0.102) mg · h · L^−1
  AUCt, free bupivacaine: 33 ng·h/mL
  Cmax: 8 to 195 ng/mL
  Cmax, free bupivacaine: 5.0 ng/mL
  Cmax, total bupivacaine: 90 ng/mL
  Tmax: 0.92 to 12 h
  tmax (min, max), free bupivacaine: (0.92, 12.0) h
clinical; free bupivacaine
  half-life: 2.9 to 15.2 h
clinical; total bupivacaine
  half-life: 2.6 to 9.6 h
Pregnant rats
  Embryo-fetal effects at the high dose: No embryo-fetal effects were observed
[1]; Cohort 1 (Laparotomy)
  Repeated Measures Pain Intensity on Movement 0-72 Hours, LS Mean: 5.9
  Total Morphine-equivalent Opioid Medication Use, MEDD 0-72 hours, Median: 63.0 mg
[1]; Cohort 2 (Laparoscopic Cholecystectomy)
  Repeated Measures Pain Intensity on Movement 0-72 Hours, LS Mean: 3.6
[2]; % of subjects
  Fatal TEAE: (0.0%)
[2]; number of subjects
  Fatal TEAE: 0
[2]; human, in vivo
  Surgical site: Drainage from surgical incision(s): (4.1%)
  Surgical site: Surgical site bleeding: (16.2%)
  Surgical site: Surgical site infection: (0.7%)
  Surgical site: Visible bruising: (70.9%)
  Surgical site: Wound dehiscence: (2.0%)
  Surgical site: Wound hematoma: (1.4%)
  Treated subjects with treatment-emergent serious adverse events: 3 subjects
[2]; human, in vivo, 6 h
  Constipation (Constipation), (%): (6.8%)
  Dizziness (Dizziness), (%): (20.9%)
  Dysgeusia (Metallic taste in mouth), (%): (14.9%)
  Headache (Headache), (%): (12.2%)
  Hypoesthesia (Numbness), (%): (0.7%)
  Nausea (Nausea), (%): (38.5%)
  Paresthesia (Tingling), (%): (4.1%)
  Pruritus (Itching), (%): (3.4%)
  Somnolence (Drowsiness), (%): (32.4%)
  Vomiting (Vomiting), (%): (10.1%)
[3]
  Anemia, (%): (11.1%)
  C-reactive protein increased, (%): (3.7%)
  Dizziness, (%): (14.8%)
  Hypertension, (%): (7.4%)
  Pyrexia, (%): (25.9%)
  Somnolence, (%): (7.4%)
  Vomiting, (%): (14.8%)
